Source: US20250313553A1, “ANNULATED 2-AMINO-3-CYANO THIOPHENES AND DERIVATIVES FOR THE TREATMENT OF CANCER” (Boehringer Ingelheim Int'l GmbH Corp., priority 2021, published 2025)

Tests used:
NCI-H358 cells = test: NCI-H358 CTG proliferation assay (120 h), assay 1; type: cell-based; conditions: Homo sapiens, 96 well, 2000 cells per well
Protocol: NCI-H358 cells (ATCC No. CRL-5807) are dispensed into white bottom opaque 96 well plates (Perkin Elmer cat no. 5680) at a density of 2000 cells per well in 100 μL RPMI-1640 ATCC-Formulation (Gibco #A10491)+10% FCS (fetal calf serum) (assay 1) or into black 384-well plates, flat and clear bottom (Greiner, PNr. 781091) at a density of 200 cells per well in 60 μl RPMI-1640 ATCC-Formulation (Gibco #A10491)+10% FCS (fetal calf serum) (assay 2). […] Compounds (10 mM stock in DMSO) are added at logarithmic dose series using the HP Digital Dispenser D300 (Tecan) (assay 1) or the ECHO acoustic liquid handler system (Beckman Coulter) (assay 2), normalizing for added DMSO and including DMSO controls. For the T0 time point measurement, untreated cells are analyzed at the time of compound addition. Plates are incubated for 120 h, and cell viability is measured using CellTiter-Glo luminescent cell viability reagent (Promega product code G7570). Viability (stated as percent of control) is defined as relative luminescence units RLU of each well divided by the RLU of cells in DMSO controls. IC50 values are determined from viability measurements by non-linear regression using a four-parameter model.

KRAS (WT) and SOS1 = molecular target: T1, KRAS (WT) and SOS1 (Homo sapiens, UniProt P01116, C118S); test: KRAS::SOS1 AlphaScreen binding assay, KRAS WT
T1 construct: KRAS (WT) 1-169, N-terminal 6His-tag for purification; 6His (N, cleaved yes); TEV cleavage site
T1 sequence (P01116 1-169 isoform P01116-2 C118S): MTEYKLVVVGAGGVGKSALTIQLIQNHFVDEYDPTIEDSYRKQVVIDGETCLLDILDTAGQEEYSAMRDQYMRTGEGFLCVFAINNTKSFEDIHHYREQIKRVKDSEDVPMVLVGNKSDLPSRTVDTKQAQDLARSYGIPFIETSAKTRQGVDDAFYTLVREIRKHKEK
Protocol: Low IC50 values in this assay setting are indicative of strong inhibition of protein-protein interaction between SOS1 and KRAS:
These assays measure the inhibitory effect of compounds on KRAS mutant protein-protein interactions using the Alpha Screen technology by Perkin Elmer.
For the chosen highest assay concentration of 100 μM, 150 nL of compound solution are transferred from a 10 mM DMSO compound stock solution. A series of eleven fivefold dilutions per compound are transferred to the assay plate, compound dilutions are tested in duplicates. DMSO are added as backfill to a total volume of 150 nL.
The assays run on a fully automated robotic system in a darkened room below 100 Lux. To 150 nl of compound dilution 10 μl of a mix including KRAS mutant protein, SOS1 (final assay concentrations see above) and GDP nucleotide (Sigma G7127; final assay concentration 10 μM) in assay buffer (1×PBS, 0.1% BSA, 0.05% Tween 20) are added into columns 1-24. […]
Plates are kept at room temperature in a darkened incubator. After an additional 60 minutes incubation time the signal is measured in a PerkinElmer Envision HTS Multilabel Reader using the AlphaScreen specs from PerkinElmer.
IC50 values are calculated and analyzed with Boehringer Ingelheim's MEGALAB IC50 application using a 4 parametric logistic model.

KRAS (G13D) and SOS1 = molecular target: T2, KRAS (G13D) and SOS1 (Homo sapiens, UniProt P01116, C118S/G13D); test: KRAS::SOS1 AlphaScreen binding assay, KRAS G13D
T2 construct: KRAS (G13D) 1-169, N-terminal 6His-tag for purification; 6His (N, cleaved yes); TEV cleavage site
T2 sequence (P01116 1-169 isoform P01116-2 G13D/C118S): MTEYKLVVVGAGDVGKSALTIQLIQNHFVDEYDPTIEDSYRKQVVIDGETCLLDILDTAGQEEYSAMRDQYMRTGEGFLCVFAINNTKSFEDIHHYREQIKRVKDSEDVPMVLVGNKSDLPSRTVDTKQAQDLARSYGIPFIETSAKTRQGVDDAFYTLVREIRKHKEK
Excerpt: This assay can be used to examine the potency with which compounds according to the invention binding to (mutated) KRAS inhibit the protein-protein interaction between SOS1 and (mutated) KRAS e.g., KRAS WT, KRAS G12C, KRAS G12D, KRAS G12V or KRAS G13D. […] Low IC50 values in this assay setting are indicative of strong inhibition of protein-protein interaction between SOS1 and KRAS:
These assays measure the inhibitory effect of compounds on KRAS mutant protein-protein interactions using the Alpha Screen technology by Perkin Elmer. […]
Plates are kept at room temperature in a darkened incubator. After an additional 60 minutes incubation time the signal is measured in a PerkinElmer Envision HTS Multilabel Reader using the AlphaScreen specs from PerkinElmer. […]
As internal control known inhibitors of KRAS mutant::SOS1 interaction can be measured on each compound plate. […]

IC50 (NCI-H358 cells) [nM]	IC50 (KRAS (WT) and SOS1) [nM]	IC50 (KRAS (G13D) and SOS1) [nM]	SMILES
5410			C[C@H](Oc1nccc(-c2noc([C@@]3(C)CCCc4sc(N)c(C#N)c43)n2)n1)[C@@H]1CCCN1C [Example V-10]
	125	928	C[C@H]1CN(C)CCN1c1cccc(-c2noc([C@@]3(C)CCCc4sc(N)c(C#N)c43)n2)n1 [Example V-1]
698			CC(C)N1CCCN(c2nccc(-c3noc([C@@]4(C)CCCc5sc(N)c(C#N)c54)n3)n2)[C@@H](C)C1 [Example V-9]
	28	176	C[C@H](Oc1cccc(-c2noc([C@@]3(C)CCCc4sc(N)c(C#N)c43)n2)n1)[C@@H]1CCCN1C [Example V-8]
